Where two headings read alike, the source gives them in different places.
Experiments:
rat NaCT [1] = target: T1, rat NaCT (Rattus norvegicus, UniProt Q8CJ44); test: Uptake via rat NaCT expressed in HRPE cells; format: cell-based; settings: for [^14C]Citrate uptake (cDNA-specific) / [^14C]Citrate uptake, %: [14C]citrate 14 μM, unlabeled compound 2.5 mM; for [^14C]Citrate uptake, %: none = 100; for Uptake in rat NaCT cDNA-transfected cells vs vector alone: succinate 80 nM, pyruvate 135 μM, citrate 35 μM, Na+ gradient
T1 sequence (Q8CJ44 1-572): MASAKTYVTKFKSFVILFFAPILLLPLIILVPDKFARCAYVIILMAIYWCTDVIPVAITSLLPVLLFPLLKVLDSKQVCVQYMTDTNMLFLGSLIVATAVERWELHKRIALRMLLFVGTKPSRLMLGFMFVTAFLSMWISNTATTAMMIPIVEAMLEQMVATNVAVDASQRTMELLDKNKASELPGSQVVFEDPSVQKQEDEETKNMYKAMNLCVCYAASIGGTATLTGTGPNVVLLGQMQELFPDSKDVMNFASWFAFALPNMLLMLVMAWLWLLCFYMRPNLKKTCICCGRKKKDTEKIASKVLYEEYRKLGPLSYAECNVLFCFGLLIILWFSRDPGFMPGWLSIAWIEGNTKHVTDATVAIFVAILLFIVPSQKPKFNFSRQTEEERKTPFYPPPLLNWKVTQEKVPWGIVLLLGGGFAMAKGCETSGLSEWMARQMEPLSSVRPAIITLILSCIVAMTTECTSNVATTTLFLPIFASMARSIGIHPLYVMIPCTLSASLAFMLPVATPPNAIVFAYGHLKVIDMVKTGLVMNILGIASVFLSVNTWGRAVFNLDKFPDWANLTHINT

zebrafish NaCT = zebrafish NaCT (Danio rerio, UniProt A0A2R8QQN0, K78Q); test: Citrate uptake via zebrafish NaCT expressed in HRPE cells; format: cell-based
rat NaCT [2] = target: T1, rat NaCT; test: Rat NaCT in X. laevis oocytes, voltage clamp and charge-to-substrate ratio; format: cell-based; settings: for Charge-to-substrate ratio: 50 μM substrate, −50 mV, 10 min
hNaDC3 = target: T2, hNaDC3 (Homo sapiens, UniProt Q8WWT9)
T2 sequence (Q8WWT9 1-602): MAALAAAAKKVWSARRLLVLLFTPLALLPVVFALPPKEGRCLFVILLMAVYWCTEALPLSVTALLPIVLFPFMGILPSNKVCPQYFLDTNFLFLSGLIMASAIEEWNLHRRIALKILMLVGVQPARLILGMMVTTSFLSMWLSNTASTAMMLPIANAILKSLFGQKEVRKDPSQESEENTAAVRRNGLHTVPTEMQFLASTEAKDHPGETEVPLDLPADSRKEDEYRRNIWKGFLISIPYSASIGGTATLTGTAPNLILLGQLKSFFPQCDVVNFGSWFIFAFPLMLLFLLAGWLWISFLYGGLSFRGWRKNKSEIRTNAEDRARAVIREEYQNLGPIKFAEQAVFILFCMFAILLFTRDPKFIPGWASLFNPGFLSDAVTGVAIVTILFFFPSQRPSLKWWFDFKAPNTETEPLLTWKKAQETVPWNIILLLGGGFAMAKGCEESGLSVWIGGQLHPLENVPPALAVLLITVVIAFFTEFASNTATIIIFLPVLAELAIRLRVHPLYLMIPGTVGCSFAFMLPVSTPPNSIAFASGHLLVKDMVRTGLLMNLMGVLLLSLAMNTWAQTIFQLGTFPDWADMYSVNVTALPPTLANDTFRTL

human NaCT = human NaCT (Homo sapiens, UniProt Q86YT5); test: Uptake via human NaCT expressed in HRPE cells; format: cell-based; settings: for [^14C]-Citrate Uptake (cDNA-specific) / [^14C]-Citrate Uptake, %: [14C]-citrate 20 μM, unlabeled compound 2.5 mM; for [^14C]-Citrate Uptake, %: none = 100
ceNaCT = target: T3, ceNaCT (Caenorhabditis elegans, UniProt P32739, I91S/L182M); test: Uptake via ceNaCT expressed in HRPE cells; settings: for Competition with [^14C]citrate for ceNaCT-mediated uptake: competitor 2.5 mM, [14C]citrate 15 μM
T3 sequence (P32739 1-551 I91S/L182M): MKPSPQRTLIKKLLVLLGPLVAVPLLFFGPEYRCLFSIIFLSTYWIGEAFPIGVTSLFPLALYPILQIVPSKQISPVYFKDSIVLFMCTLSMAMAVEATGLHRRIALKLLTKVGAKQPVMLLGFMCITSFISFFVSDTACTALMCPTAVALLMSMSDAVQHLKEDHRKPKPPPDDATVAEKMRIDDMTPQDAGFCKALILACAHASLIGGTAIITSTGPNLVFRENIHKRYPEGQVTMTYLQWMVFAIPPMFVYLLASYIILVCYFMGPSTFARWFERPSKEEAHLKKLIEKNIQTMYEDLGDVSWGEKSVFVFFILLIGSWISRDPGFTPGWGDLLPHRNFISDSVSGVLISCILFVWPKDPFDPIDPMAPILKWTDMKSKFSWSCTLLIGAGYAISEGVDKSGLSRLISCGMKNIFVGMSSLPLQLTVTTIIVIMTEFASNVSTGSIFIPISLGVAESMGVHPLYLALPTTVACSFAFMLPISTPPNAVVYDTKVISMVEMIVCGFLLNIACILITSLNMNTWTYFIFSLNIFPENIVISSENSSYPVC

drIndy = drIndy (Drosophila melanogaster, UniProt Q9VVT2); settings: for % Control of cDNA-specific [^3H]succinate uptake / cDNA-specific [^3H] succinate uptake: [3H]succinate 40 nM, inhibitor 2.5 mM; for cDNA-specific [^3H] succinate uptake: NaCl buffer pH 7.5; for Uptake in drIndy cDNA-transfected cells vs vector alone / Succinate uptake mediated by drIndy: succinate 40 nM
[3] = presence of Na+, citrate 35 μM, pyruvate 135 μM

zebrafish NaCT, sequence (A0A2R8QQN0 2-582 K78Q): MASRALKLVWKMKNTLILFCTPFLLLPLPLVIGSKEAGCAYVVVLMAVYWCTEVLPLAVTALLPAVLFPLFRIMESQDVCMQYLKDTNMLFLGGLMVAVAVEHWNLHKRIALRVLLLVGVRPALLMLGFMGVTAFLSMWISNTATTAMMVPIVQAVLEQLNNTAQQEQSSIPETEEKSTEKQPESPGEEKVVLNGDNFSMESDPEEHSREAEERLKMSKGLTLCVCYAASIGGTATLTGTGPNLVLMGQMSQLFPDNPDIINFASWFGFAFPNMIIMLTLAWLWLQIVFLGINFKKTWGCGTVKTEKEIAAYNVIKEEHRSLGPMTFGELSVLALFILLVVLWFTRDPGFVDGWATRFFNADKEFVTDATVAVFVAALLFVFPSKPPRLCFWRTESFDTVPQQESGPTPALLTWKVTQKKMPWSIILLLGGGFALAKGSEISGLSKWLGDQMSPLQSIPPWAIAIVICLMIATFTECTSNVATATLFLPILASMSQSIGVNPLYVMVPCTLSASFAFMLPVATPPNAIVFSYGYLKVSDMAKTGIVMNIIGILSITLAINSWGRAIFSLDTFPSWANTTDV
drIndy, sequence (Q9VVT2 19-590): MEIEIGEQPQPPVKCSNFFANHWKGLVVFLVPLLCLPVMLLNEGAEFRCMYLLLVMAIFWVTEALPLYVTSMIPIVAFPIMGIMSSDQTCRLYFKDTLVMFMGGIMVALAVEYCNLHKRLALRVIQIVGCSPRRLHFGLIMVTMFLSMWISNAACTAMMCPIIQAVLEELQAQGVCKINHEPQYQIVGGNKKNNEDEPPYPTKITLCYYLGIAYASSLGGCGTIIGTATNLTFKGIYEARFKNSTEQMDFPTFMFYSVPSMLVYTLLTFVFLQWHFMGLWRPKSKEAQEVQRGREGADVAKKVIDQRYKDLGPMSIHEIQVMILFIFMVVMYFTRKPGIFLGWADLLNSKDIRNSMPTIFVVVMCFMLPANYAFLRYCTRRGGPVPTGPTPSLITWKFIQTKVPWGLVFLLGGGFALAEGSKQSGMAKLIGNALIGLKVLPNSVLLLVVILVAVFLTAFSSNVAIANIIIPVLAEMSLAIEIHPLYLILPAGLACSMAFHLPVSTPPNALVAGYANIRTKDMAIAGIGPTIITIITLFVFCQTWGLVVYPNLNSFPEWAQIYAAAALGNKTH
human NaCT, sequence (Q86YT5 whole entry): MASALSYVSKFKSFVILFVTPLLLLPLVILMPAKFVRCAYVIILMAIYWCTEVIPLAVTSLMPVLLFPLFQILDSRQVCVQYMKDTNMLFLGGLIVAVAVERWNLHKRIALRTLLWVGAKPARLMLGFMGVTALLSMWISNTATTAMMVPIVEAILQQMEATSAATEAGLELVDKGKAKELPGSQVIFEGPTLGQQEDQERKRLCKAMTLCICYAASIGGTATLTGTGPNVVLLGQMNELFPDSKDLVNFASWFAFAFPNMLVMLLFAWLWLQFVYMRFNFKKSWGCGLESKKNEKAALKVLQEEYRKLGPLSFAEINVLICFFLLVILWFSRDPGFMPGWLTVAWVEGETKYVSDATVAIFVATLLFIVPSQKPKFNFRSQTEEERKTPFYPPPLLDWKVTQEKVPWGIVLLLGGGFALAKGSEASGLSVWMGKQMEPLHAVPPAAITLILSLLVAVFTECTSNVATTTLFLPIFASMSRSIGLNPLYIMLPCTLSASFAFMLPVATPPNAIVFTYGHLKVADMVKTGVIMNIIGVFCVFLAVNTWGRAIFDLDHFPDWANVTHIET

O=C(O)CC(O)(CC(=O)O)C(=O)O [Citrate]
IC50 (rat NaCT [1]): 28 ± 4 µM | Ki (rat NaCT [1]): 16 ± 2 µM | Kt (Michaelis-Menten constant) for citrate uptake via rat NaCT (rat NaCT [1]): 18 ± 4 µM | [^14C]Citrate uptake (cDNA-specific) (rat NaCT [1]): 1.5 ± 0.1 Pmol/10^6 cells/min | [^14C]Citrate uptake, % (rat NaCT [1]): 1% | Uptake in rat NaCT cDNA-transfected cells vs vector alone (rat NaCT [1]): approximately 90 fold | IC50 (zebrafish NaCT): 30 ± 4 µM | Km (zebrafish NaCT; read-out: Michaelis constant for citrate uptake, hrpe cells, 30 min): 40 ± 4 µM | Charge-to-substrate ratio (rat NaCT [2]): 1 | Currents in rat NaCT oocytes compared to mouse NaCT (rat NaCT [2]; 0.5 mM citrate): 3 fold | Citrate-induced current (rat NaCT [2]; 0.5 mM citrate, three oocytes): 87±8 nA | Lower affinity of hNaDC3 than drIndy for citrate (hNaDC3): 20 fold | IC50 (human NaCT): 0.688 ± 0.15 mM | Kt for citrate via human NaCT in the presence of Li+ (human NaCT; 10 mM Li+): 95 ± 15 µM | [^14C]-Citrate Uptake (cDNA-specific) (human NaCT): 7.7 ± 0.7 pmol/10^6 cells/min | [^14C]-Citrate Uptake, % (human NaCT): 16% | Uptake in human NaCT cDNA-transfected cells vs vector alone (human NaCT; citrate 20 μM, NaCl): about 23 fold | Affinity of human NaCT for citrate less than that of rat NaCT (human NaCT; identical assay conditions): about 30 fold | Kt (Michaelis-Menten constant) for citrate uptake via human NaCT (human NaCT; wild type, absence of Li+): 604 ± 73 µM | Uptake in ceNaCT-expressing cells vs vector-transfected control cells (ceNaCT; [14C]citrate 10 μM, Na+, pH 7.5): approximately 45 fold | Uptake of [^14C]citrate in cells expressing ceNaCT (ceNaCT; citrate 10 μM, Na+, pH 7.5): 61±5 pmol/10^6 Cells/min | Competition with [^14C]citrate for ceNaCT-mediated uptake (ceNaCT): potent inhibitor | Vmax for transport via ceNaCT (ceNaCT; pH 7.5): 270±13 pmol/10^6 cells/min | % Control of cDNA-specific [^3H]succinate uptake (drIndy): 13% | cDNA-specific [^3H] succinate uptake (drIndy): 18.6 ± 3.0 fmol/106 cells per min | Uptake in drIndy cDNA-transfected cells vs vector alone (drIndy; [3]): approximately 30 fold

O=C(O)CCC(=O)O [Succinate, succinate]
Affinity of rat NaCT for succinate lower than for citrate (rat NaCT [1]): 6 fold | IC50 (rat NaCT [1]): 172 ± 24 µM | Ki (rat NaCT [1]): 98 ± 14 µM | [^14C]Citrate uptake (cDNA-specific) (rat NaCT [1]): 5.7 ± 0.2 Pmol/10^6 cells/min | [^14C]Citrate uptake, % (rat NaCT [1]): 5% | Succinate uptake at physiological concentrations (rat NaCT [1]; medium with 135 μM citrate and 40 μM succinate): 0.005±0.001 nmol/10^6 cells/minute | Uptake in rat NaCT cDNA-transfected cells vs vector alone (rat NaCT [1]): about 7 fold | IC50 (zebrafish NaCT): 51 ± 9 µM | Charge-to-substrate ratio (rat NaCT [2]): 2 | Uptake in hNaDC3 cDNA-transfected cells vs vector (hNaDC3; succinate 40 nM, presence of Na+): 200 fold | IC50 (human NaCT): 1.92 ± 0.48 mM | [^14C]-Citrate Uptake (cDNA-specific) (human NaCT): 32.1 ± 3.6 pmol/10^6 cells/min | [^14C]-Citrate Uptake, % (human NaCT): 67% | Competition with [^14C]citrate for ceNaCT-mediated uptake (ceNaCT): inhibited markedly | Vmax for transport via ceNaCT (ceNaCT; pH 7.5): 210±8 pmol/10^6 cells/min | Km (ceNaCT; read-out: Michaelis-Menten constant (Kt) for transport via ceNaCT, pH 7.5, 30 min): 88 ± 13 µM | % Control of cDNA-specific [^3H]succinate uptake (drIndy): 6% | cDNA-specific [^3H] succinate uptake (drIndy): 4.6 ± 0.4 fmol/106 cells per min | Uptake in drIndy cDNA-transfected cells vs vector alone (drIndy; absence of Na+): 15 fold | Uptake in drIndy cDNA-transfected cells vs vector alone (drIndy; [3]): 20 fold | Km (drIndy; read-out: Michaelis-Menten constant (Km) for transport via drIndy, presence of Na+): 40 ± 4 µM | Succinate uptake mediated by drIndy (drIndy; pH 5): 52±2 fmol/10^6 cells per minute | Succinate uptake mediated by drIndy (drIndy; pH 8): 127±5 fmol/10^6 cells per minute

— patent US20050095240A1, “NaCT as a target for lifespan expansion and weight reduction” (Medical College of Georgia Research, priority 2002, published 2005)
